Measured values taken from US7304073B2, “Method of treating myocardial ischemia-reperfusion injury using NF-kB inhibitors” (Wyeth, priority 2004, dated 2007).
Entries after “also recorded” stand apart in the source; their conditions may differ.

What was measured:
[1] = system: myocardial ischemia-reperfusion models; details: cited from earlier work
[2] = system: perfused isolated male rat hearts; assay: Isolated rat heart ischemia-reperfusion (Langendorff perfusion)
Procedure: Male rats 3 months old were anesthetized with sodium-pentobarbital and hearts were removed and mounted on a Langendorff apparatus. In this paradigm isolated hearts were perfused through an aortic cannula with a modified Krebs-Henseleit buffer equilibrated with 95% O2 and 5% CO2 at a constant pressure of 58 mmHg. Hearts were maintained at 37° C. throughout the experiments and temperature was continuously monitored with an IT-18 thermocouple microprobe inserted into the left ventricle (PhysiTemp, Clifton, N.J.). Flow rate was monitored with a flow probe and small animal flow meter (T206) from Transonic Systems Incorporated, Ithaca, N.Y. Hearts were perfused for 5 minutes with no additions followed by perfusion with vehicle or test compound which were continuously perfused throughout the remaining steps of the experiments. After 20 minutes the hearts were exposed to 100 nM isoproterenol for 5 minutes followed by 15 minutes global ischemia which was achieved by turning off the perfusion pump. After ischemia, hearts were reperfused at a constant flow rate for 50 minutes. This flow rate was equivalent to the rate used before ischemia to maintain 58 mmHg.
To assess ischemic damage, the change in left ventricular diastolic pressure was continually monitored using a fluid filled latex balloon inserted into the left ventricle through the left atrium. The diastolic pressure was initially adjusted to 5 mmHg. The pressure signals were recorded with a Grass Polygraph.
The release of creatine kinase (CK) enzyme activity from the hearts was also measured as a marker of cardiac damage. Fractions of perfusate were collected before ischemia and every 5 minutes during reperfusion. CK enzyme activity released from the hearts was determined in the perfusate fractions using CK reagent as recommended by the supplier (Sigma Diagnostics, St. Louis, Mo.).

[3] = system: Adult ovariectomized female Sprague Dawley rats; assay: In vivo rat heart ischemia-reperfusion (left coronary artery occlusion), infarct size
Procedure: A rat in vivo model was used to evaluate effects of experimental compounds on ischemia-reperfusion in the left ventricle. Adult ovariectomized female Sprague Dawley rats (>6 weeks) were used. All experimental procedures were performed under general anesthesia with a combination of ketamine and xylazine. Rats were placed on a heating pad and ventilated using a rodent ventilator. The chest was clipped free of hair, disinfected with Betadine and rinsed with alcohol. A small incision was made through skin and underlying muscles between 4th and 5th ribs in the left chest. The ribs were gently spread and the heart was exposed. A surgical suture was placed under the left coronary artery. The artery was occluded by tightening the suture for 30 minutes to induce myocardial ischemia and then re-opened for the 2 hour reperfusion period. […] At the end of reperfusion, hearts were harvested, perfused with Evans Blue, sectioned and stained with 2,3,5-triphenyltetrazolium chloride. Each section was digitally imaged. Infarct size and area at risk were measured and statistically analyzed.

[4] = system: Ovariectomized female New Zealand White rabbits; assay: In vivo rabbit heart ischemia-reperfusion (left anterior descending coronary artery occlusion), infarct size
Procedure: Ovariectomized female New Zealand White rabbits were anesthetized with a mixture of xylazine (3 mg/kg) and ketamine (35 mg/kg) administered IM, followed by an IV injection of sodium pentobarbital (15 mg/kg). An endotracheal tube was inserted and animals were positive pressure ventilated with room air. A Millar catheter micro-tip pressure transducer was inserted through the left carotid artery and positioned above the aortic valves to monitor aortic blood pressure. A lead II electrocardiogram was monitored throughout the experiment. A left thoracotomy and pericardiotomy were performed. […] A silk suture was passed behind the left anterior descending coronary artery and secured against polyethylene tubing for 30 minutes (ischemic period). Regional myocardial ischemia was verified by cyanosis in the region of the occluded vessel and by ST-segment elevation like changes in the electrocardiogram. The hearts were then reperfused for 4 hours.
To determine infarct size the heart was removed, cannulated through the aorta and perfused with Krebs-Henseleit buffer followed by perfilsion with 1% triphenyltetrazolium chloride (TTC). The left anterior descending coronary artery was re-occluded with a suture and 0.25% Evans Blue was perfused through the heart. The heart was cut into transverse sections and the area of the left ventricle, area at risk and the infarct area were traced and analyzed using Adobe PhotoShop Software. The infarct size is expressed as a percentage of the area at risk.

uterus or breast = assay: Activity in the uterus or breast; details: in contrast to the known effects of 17β-estradiol
[5] = 1 uM, isolated rat heart, following ischemia-reperfusion

In the case of `C[C@]12CC[C@@H]3c4ccc(O)cc4CC[C@H]3[C@@H]1CC[C@@H]2O` [17β-estradiol], the “protection in similar myocardial ischemia-reperfusion models” value [1] is given as “protective”.
In the case of `CC1c2cc(F)ccc2-c2ccccc2N1S(=O)(=O)c1ccc(O)cc1` (stereo not shown) [Example 3, 4-[(8-Fluoro-6-methylphenanthridin-5(6H)-yl)sulfonyl]phenol], the “effect on increase in left ventricular diastolic pressure in comparison to vehicle” value [2, 5] is reported as “significantly attenuated; also recorded: cardioprotective activity”, the “effect on left ventricular developed pressure in comparison to vehicle” value [2, 5] is reported as “significantly attenuated; also recorded: cardioprotective activity” and the “release of creatine kinase (CK) activity from hearts following ischemia” value ([2]; 1 uM, perfusate during reperfusion phase, versus vehicle) is reported as “significantly reduced; also recorded: significant decreases; also recorded: cardioprotective activity”. For the same compound, the “increase in left ventricular diastolic pressure after ischemia-reperfusion” value ([2]; luM of compound, 15 minutes global ischemia, 50 minutes reperfusion, vehicle 29 mmHg) was 11 mmHg, the infarct size ([3]; 1 mg/kg iv 5 minutes before reperfusion, 30 minutes ischemia, 2 hour reperfusion, Mean±SEM, vehicle 54.6±3.2% / 54.4±4.7%) was 32.6±5.2% and the “effect on ischemia/reperfusion-induced myocardial infarction compared with vehicle” value ([3]; 1 mg/kg iv, ovariectomized female rats) was “significantly less myocardial infarction; also recorded: cardioprotective activity”. For the same compound, the “size of the area at risk relative to the area of the left ventricle” value ([4]; 1 mg/kg IV 30 minutes before induction of ischemia) was “did not have an effect”, the “effect on infarct size in comparison to vehicle” value ([4]; 1 mg/kg IV 30 minutes before induction of ischemia, rabbit) was “significantly reduced infarct size; also recorded: cardioprotective activity” and the “infarct size (ischemic area relative to the area at risk)” value ([4]; 1 mg/kg IV 30 minutes before ischemia, 30 minutes ischemia, 4 hours reperfusion, vehicle 59%) was 39%. For the same compound, the “activity in the uterus or breast” value (uterus or breast) was “no activity” and the melting point was 188 °C.
In the case of `COc1cc(OC)cc(N2CCN(C(=O)[C@](C)(C#N)[C@H](c3ccccc3OC)c3cccc4ccccc34)CC2)c1` [Example 4, (S)-3-[4-(3,5-dimethoxyphenyl)piperazin-1-yl]-2-[(S)-(2-methoxyphenyl)(1-naphthyl)methyl]-2-methyl-3-oxopropanenitrile], the melting point is reported as 186 to 188 °C.
